The source of these data is patent US20210145801A1, “THERAPY FOR PROTEIN MISFOLDING DISEASE” (WREN THERAPEUTICS LIMITED, priority 2018, published 2021).

In the assay the target is T1, Aβ42 (Homo sapiens, UniProt P05067).
T1 construct: made in house; host or cells: E. coli BL21 Gold (DE3)
Nature of the assay: ThT kinetic assay of Aβ42 aggregation (unseeded). Format: biochemical. The conditions noted are these: 2 μM Aβ42; 5× drug:protein concentration. An excerpt: The recombinant Aβ(M1-42) peptide ([…]-SNKGAIIGLMVGGVVIA [SEQ ID NO: 1]), here called Aβ42, was expressed in the E. coli BL21 Gold (DE3) strain (Stratagene, Calif., U.S.A.) and purified as described previously with slight modifications. Briefly, the purification procedure involved sonication of E. coli cells, dissolution of inclusion bodies in 8 M urea, and ion exchange in batch mode on diethylaminoethyl cellulose resin and lyophylization. The lyophilized fractions were further purified using Superdex 75 HR 26/60 column (GE Healthcare, Buckinghamshire, U.K.) and eluates were analyzed using SDS-PAGE for the presence of the desired protein product. The fractions containing the recombinant protein were combined, frozen using liquid nitrogen, and lyophilized again.
Except for Netoglitazone, which was custom synthesised by GVK BIO, all small molecules were purchased with a purity greater than 99%. Small molecules were first solubilized in 100% DMSO to a concentration of 5 mM, and then diluted in the peptide solution to reach a final DMSO concentration of maximum 1-3%. We verified that the addition of DMSO in the reaction mixture has no effect on Aβ42 aggregation.
Solutions of monomeric peptides were prepared by dissolving the lyophilized Aβ42 peptide in 6 M GuHCl. Monomeric forms were purified from potential oligomeric species and salt using a Superdex 75 10/300 GL column (GE Healthcare) at a flowrate of 0.5 mL/min, and were eluted in 20 mM sodium phosphate buffer, pH 8 supplemented with 200 μM EDTA and 0.02% NaN3. The centre of the peak was collected, and the peptide concentration was determined from the absorbance of the integrated peak area using ε280=1490 L mol^−1 cm^−1. The obtained monomer was diluted with buffer to the desired concentration and supplemented with 20 μM Thioflavin T (ThT) from a 1 mM stock. All samples were prepared in low binding Eppendorf tubes on ice using careful pipetting to avoid introduction of air bubbles. Each sample was then pipetted into multiple wells of a 96-well half-area, low-binding, clear bottom and PEG coating plate (Corning 3881), 80 μL per well. Aβ42 kinetics have been performed in the absence or the presence of Netoglitazone, Mitoglitazone, Rosiglotazone, Rivoglitazone, Pioglitazone, Ciglitazone, Englitazone, Darglitazone, Troglitazone and Balaglitazone.
The time evolution of the total fibril mass concentration is described as a function only of the initial conditions and the rate constants of the system by the integrated rate law given by Eq. (54) in Cohen et al., J Chem Phys 135, 065106, 2011.
These are related to the rate of formation of new aggregates through primary pathways λ=√{square root over (2k+knm(0)^n^c)} and through secondary pathways κ=√{square root over (2k+k2m(0)^n^2^+1)}, where the initial concentration of soluble monomers is denoted by m(0), nc and n2 describe the dependencies of the primary and secondary pathways on the monomer concentration (nc=n2=2 for Aβ42), and kn, k+ and k2 are the rate constants of the primary nucleation, elongation and secondary nucleation, respectively (Cohen et al., Proc Natl Acad Sci USA, 110(24), 9758-63, 2013).
Inhibitors can interfere with the aggregation process by inhibiting one or more of the individual microscopic steps.

T1 sequence (P05067 671-713): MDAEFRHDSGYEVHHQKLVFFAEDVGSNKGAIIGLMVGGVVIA

`Cn1c(COc2ccc(CC3SC(=O)NC3=O)cc2)nc2ccccc2c1=O` (centres unmarked) [Balaglitazone]: the “Delay of Aβ42 aggregation” value is on record as “little to no delay of Aβ42 aggregation was observed”. With `Cc1oc(-c2ccccc2)nc1CCC(=O)c1ccc(CC2SC(=O)NC2=O)cc1` (centres unmarked) [Darglitazone] the entry was “observed to delay Aβ42 aggregation”.

For the compound `O=C1NC(=O)C(Cc2ccc3c(c2)CC[C@H](Cc2ccccc2)O3)S1` (some centres unmarked) [Englitazone], the “Delay of Aβ42 aggregation” value is on record as “significantly delayed aggregation”. With `CCc1ccc(C(=O)COc2ccc(CC3SC(=O)NC3=O)cc2)nc1` (centres unmarked) [Mitoglitazone] the entry was “little to no delay of Aβ42 aggregation was observed”. With `COc1ccc2nc(COc3ccc(CC4SC(=O)NC4=O)cc3)n(C)c2c1` (centres unmarked) [Rivoglitazone] the entry was “little to no delay of Aβ42 aggregation was observed”.
